In patent US11083709B2, “Compounds, compositions, and methods of increasing CFTR activity” (Proteostasis Therapeutics, Inc., priority 2015, dated 2021):

Experiments:
[1] = biological target: T1, CFTR in G542X/F508del HBEs (Homo sapiens, UniProt P13569, DEL508-508); test: Ussing measurements, G542X/F508del HBEs; format: cell-based; settings: genotype G542X/F508del
T1 construct: endogenous in cells; host or cells: primary lung epithelial cells (hBEs), genotype G542X/F508del
Description: As discussed above, Ussing measurements were used to measure CFTR activity. In this method, primary lung epithelial cells (hBEs) with a Cystic fibrosis causing class I mutation were differentiated for a minimum of 4 weeks in an air-liquid interface on SnapWell™ filter plates prior to the Ussing measurements. Cells were apically mucus-washed for 30 minutes prior to treatment with compounds. The basolateral media was removed and replaced with media containing the compound of interest diluted to its final concentration from DMSO or aqueous stocks. Treated cells were incubated at 37° C. and 5% CO2 for 24 hours. […] The short-circuit current was measured in voltage clamp-mode (Vhold=0 mV), and the entire assay was conducted at a temperature of 36° C.-36.5° C. Once the voltages stabilized, the chambers were clamped, and data were recorded by pulse readings every 5 seconds. Following baseline current stabilization, the following additions were applied and the changes in current and resistance of the cells were monitored: • 1. […]
The forskolin-sensitive current and inhibitable current (that potentiated current that was blocked by CFTRinh-172) were measured as the specific activity of the ΔF508-CFTR channel, and increase in response to compound in this activity over that observed in vehicle-treated samples were identified as the correction of ΔF508-CFTR function imparted by the compound tested. […]

[2] = tested on: CFTR, genotype 3849 + 10kb C > T/N1303K; test: CFTR activity by mutation type, 3849 + 10kb C > T/N1303K (Table 7); format: cell-based, human

T1 sequence (P13569 with tags, fused parts or gaps DEL508-508): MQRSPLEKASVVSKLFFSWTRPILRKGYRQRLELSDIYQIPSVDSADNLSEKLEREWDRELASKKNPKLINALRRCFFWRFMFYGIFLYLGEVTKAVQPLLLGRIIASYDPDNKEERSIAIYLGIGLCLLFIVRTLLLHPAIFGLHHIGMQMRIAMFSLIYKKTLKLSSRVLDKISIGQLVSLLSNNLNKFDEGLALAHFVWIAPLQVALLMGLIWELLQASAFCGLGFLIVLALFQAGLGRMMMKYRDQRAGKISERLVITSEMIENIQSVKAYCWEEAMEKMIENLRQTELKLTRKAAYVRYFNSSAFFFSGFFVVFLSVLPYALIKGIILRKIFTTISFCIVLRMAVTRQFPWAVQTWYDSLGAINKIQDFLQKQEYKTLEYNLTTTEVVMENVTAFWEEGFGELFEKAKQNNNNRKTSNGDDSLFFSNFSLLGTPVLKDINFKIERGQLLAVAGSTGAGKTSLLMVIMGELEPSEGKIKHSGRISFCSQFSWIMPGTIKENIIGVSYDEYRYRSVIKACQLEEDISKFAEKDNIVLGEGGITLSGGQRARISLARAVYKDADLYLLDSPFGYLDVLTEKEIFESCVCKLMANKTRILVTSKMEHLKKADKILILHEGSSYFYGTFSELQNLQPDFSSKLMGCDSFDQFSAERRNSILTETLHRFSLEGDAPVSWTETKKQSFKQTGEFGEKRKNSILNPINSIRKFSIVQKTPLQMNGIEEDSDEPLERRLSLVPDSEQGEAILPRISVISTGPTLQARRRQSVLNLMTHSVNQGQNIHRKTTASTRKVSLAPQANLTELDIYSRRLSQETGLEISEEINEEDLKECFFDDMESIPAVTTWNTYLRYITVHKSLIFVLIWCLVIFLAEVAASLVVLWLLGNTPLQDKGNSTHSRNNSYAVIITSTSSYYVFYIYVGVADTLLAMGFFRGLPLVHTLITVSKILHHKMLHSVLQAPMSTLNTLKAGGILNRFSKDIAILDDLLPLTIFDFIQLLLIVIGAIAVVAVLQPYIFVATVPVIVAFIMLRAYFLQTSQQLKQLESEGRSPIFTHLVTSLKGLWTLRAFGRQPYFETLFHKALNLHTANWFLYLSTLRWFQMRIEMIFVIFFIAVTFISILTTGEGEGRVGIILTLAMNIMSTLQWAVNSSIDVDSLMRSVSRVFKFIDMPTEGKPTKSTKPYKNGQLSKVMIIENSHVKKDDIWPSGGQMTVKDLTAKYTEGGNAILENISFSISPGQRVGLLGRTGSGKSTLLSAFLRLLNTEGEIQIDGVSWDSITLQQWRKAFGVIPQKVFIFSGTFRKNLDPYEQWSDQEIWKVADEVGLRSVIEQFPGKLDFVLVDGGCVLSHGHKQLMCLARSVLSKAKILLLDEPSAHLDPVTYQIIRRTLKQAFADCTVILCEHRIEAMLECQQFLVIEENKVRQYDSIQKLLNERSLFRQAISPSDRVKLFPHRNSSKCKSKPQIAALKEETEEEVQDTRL

C[C@@H](O)c1nnc([C@H]2C[C@H](NC(=O)c3cc(-c4ccccc4)no3)C2)o1 [Example 6, N-(trans-3-(5-((R)-1-hydroxyethyl)-1,3,4-oxadiazol-2-yl)cyclobutyl)-3-phenylisoxazole-5-carboxamide]
Combination with ivacaftor and lumacaftor, activity ([1]; compound A 10uM + ivacaftor 1uM + lumacaftor 3 uM, relative activity of 100% = ivacaftor and lumacaftor): ++++ (++++ indicates activity at 10uM of >150% of the indicated relative activity treatment)
Stand Alone activity ([1]; compound A 10uM, relative activity of 100% = ivacaftor (1uM) and lumacaftor (3 uM)): + (+ indicates activity at 10uM of 15% to <50% of the indicated relative activity treatment)
Combination with ivacaftor, activity ([2]; compound A 10uM + ivacaftor 1uM, relative activity of 100% = ivacaftor): +++ (+++ indicates activity at 10uM of 100% to <150% of the indicated relative activity treatment)
Stand Alone activity ([2]; compound A 10uM, relative activity of 100% = ivacaftor (1uM)): ++ (++ indicates activity at 10uM of 50% to <100% of the indicated relative activity treatment)
